In PubChem BioAssay (NCI) one finds TGI and GI50 data, which are given here for nine molecules.

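Each compound was tested at five concentrations against cells in 96-well plates for 48 hours. GI50 marks 50% less growth. TGI marks complete inhibition of growth.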 Where only a bound is given, the exact number is not on record here.

What all share (assay): NCI anticancer screen, dose series, 48 h
The test system of test [1] is OVCAR-4 ovarian.
The test system of test [2] is OVCAR-3 ovarian.
Test [3] deals with NCI/ADR-RES ovarian.
Test [4] deals with CAKI-1 renal.
In test [5] the test system is MOLT-4 leukemia.
The test system of test [6] is U251 CNS.
The test system of test [7] is ACHN renal.
For test [8], the system named is HS 578T breast.
In test [9] the test system is SN12C renal.
The subject of test [10] is DU-145 prostate.

As to `Cc1cn(C2C=CC(CO)O2)c(=O)[nH]c1=O` (stereo unspecified), the TGI in test [1], in test [2], in test [3], in [4], in test [5] and in test [6] was greater than 1000 µM in each case. The TGI in test [7], in test [8], in test [9] and in test [10] was greater than 1000 µM each time.
Take `COc1ccc(/C=c2\sc3n(c2=O)C2C(NN=3)N(C)C(=O)N2C)cc1` (stereo unspecified): the GI50 in [1] is greater than 100 µM; in test [2], 0.481 µM; in [3] it was 0.579 µM; in test [4], 0.563 µM; in test [5], 1.24 µM; in [6] it was 1.44 µM. Further, the GI50 was 1.53 µM in test [7], 0.659 µM in test [8], 1.63 µM in test [9] and 1.32 µM in [10]. The TGI is greater than 100 µM in test [1]; 3.53 µM in [2]; greater than 40.9 µM in [3]; greater than 100 µM in test [4]; greater than 100 µM in test [5]; greater than 100 µM in test [6]. For the same molecule, the TGI was greater than 100 µM in test [7], 8.96 µM in test [8], greater than 100 µM in test [9] and greater than 100 µM in test [10].
With `COC1=C(C)C(=O)c2c(c(CCCl)c3n2CCC3O)C1=O` (stereo unspecified), the GI50 in [1] was 9.36 µM; in test [2], 2.19 µM; in [3] it was 0.872 µM; in test [4], 1.22 µM; in test [5], 7.37 µM; in [6] it was 0.36 µM. Moreover, the GI50 in [7] was 0.327 µM; in [8], 1.06 µM; in test [9], 0.694 µM; in test [10], 0.039 µM. Moreover, the TGI in test [1] was 39 µM; in [2], 6.72 µM; in test [3], 7.61 µM; in test [4] it was 3.95 µM; in [5], 99.4 µM; in [6], 11.9 µM. Besides, the TGI in test [7] was 6.83 µM; in test [8] it was 6.65 µM; in test [9], 14.2 µM; in test [10], 1.9 µM.
As for `Clc1ccc(-c2csc(Nc3cccc(-c4csc(-c5ccccc5)n4)c3)n2)cc1`, the GI50 is 11.4 µM in test [2]; 13 µM in test [3]; 9.77 µM in [4]; 19.5 µM in [5]; 7.39 µM in test [6]; 14.6 µM in [7]. Moreover, the values for the GI50 in [8], in test [9] and in test [10] were 20.6 µM, 7.6 µM and 9.15 µM, respectively. The TGI is 32.4 µM in test [2]; 24.2 µM in test [3]; 25.6 µM in test [4]; greater than 50 µM in [5]; 14.1 µM in test [6]; 42.1 µM in test [7]. Further, the values for the TGI in [8], in test [9] and in [10] were greater than 50 µM, 16.8 µM and 17.5 µM, respectively.
In the case of `Oc1ccc(O)c(-c2cc(-c3ccc(Cl)cc3)nn2-c2ccccc2)c1`, the GI50 is 14.5 µM in test [2]; 18.8 µM in test [4]; 3.3 µM in [5]; 18.6 µM in test [7]; 3.43 µM in test [8]; 2.88 µM in test [9]. Moreover, in [10], the GI50 was 26.1 µM. Also, the TGI is 30.7 µM in test [2]; 25.3 µM in test [3]; 39.6 µM in test [4]; greater than 100 µM in test [5]; 32.6 µM in test [7]; 29.8 µM in test [8]. Besides, the TGI came to 7.19 µM in test [9] and 48.3 µM in test [10].
Take `COc1cccc(CSCC(=O)O)c1`: the TGI in [1], in [2], in test [3], in test [4], in test [6] and in test [7] was greater than 100 µM throughout. Further, the TGI in test [8], in test [9] and in test [10] was greater than 100 µM throughout.
In the case of `COc1ccc2c(c1)CC[C@@H]1[C@@H]2CC[C@]2(C)[C@@H](NC(=O)/C=C/c3ccc(O)c(O)c3)CC[C@@H]12`, the GI50 in test [1] was 11.9 µM; in [2], 10.6 µM; in [3], 2 µM; in test [4], 2.03 µM; in test [6], 2.88 µM; in test [7], 3.89 µM. The figures for the GI50 in test [8], in [9] and in test [10] were 18.5 µM, 2.61 µM and 12.6 µM, respectively. Further, the TGI in test [1] came to 74.7 µM; in test [2] it was 22.7 µM; in [3], 6.05 µM; in test [4] it was 4.09 µM; in test [6], 11.2 µM; in test [7] it was 14.8 µM. In addition, the TGI in test [8] is 58.4 µM; in test [9] it was 9.3 µM; in test [10], 30.4 µM.
Turning to `COC(=O)C(=CNC(N)=O)C(=O)OC`, the TGI in [2], in test [3], in test [4], in test [5], in test [7] and in test [8] was greater than 100 µM throughout. The TGI in [9] and in test [10] was greater than 100 µM each time.
Turning to `CCOC(=O)c1c(C)n(Cc2ccccc2)c2c1cc(O)c1[nH]c(Cc3ccccc3)nc12`, the GI50 in [1] is 10.9 µM; in test [2] it was 11.4 µM; in test [3], 18.9 µM; in test [4], 7.77 µM; in test [6], 7.46 µM; in test [7], 23 µM. Besides, the results for the GI50 in test [8], in test [9] and in test [10] were 9.53 µM, 10.5 µM and 20.5 µM, respectively. Further, the TGI in test [1] is greater than 57.3 µM; in test [2], 44 µM; in test [3] it was greater than 57.9 µM; in test [4], 21.8 µM; in [6], 33 µM; in test [7], greater than 100 µM. The TGI was greater than 57.8 µM in test [8], 39.8 µM in test [9] and greater than 57.7 µM in test [10].
